The record followed here is US20230365592A1 (Agios Pharmaceuticals, Inc., priority 2022, published 2023).

SMILES strings stand for the structures.

Broadly, the AC50 is the midpoint of the concentration-response curve, whichever way the signal moves.

In one test the target is T1, human PAH with the R408W mutation (Homo sapiens, UniProt P00439, R408W).
T1 construct: expressed in transfected cells
T1 sequence (P00439 1-452 R408W): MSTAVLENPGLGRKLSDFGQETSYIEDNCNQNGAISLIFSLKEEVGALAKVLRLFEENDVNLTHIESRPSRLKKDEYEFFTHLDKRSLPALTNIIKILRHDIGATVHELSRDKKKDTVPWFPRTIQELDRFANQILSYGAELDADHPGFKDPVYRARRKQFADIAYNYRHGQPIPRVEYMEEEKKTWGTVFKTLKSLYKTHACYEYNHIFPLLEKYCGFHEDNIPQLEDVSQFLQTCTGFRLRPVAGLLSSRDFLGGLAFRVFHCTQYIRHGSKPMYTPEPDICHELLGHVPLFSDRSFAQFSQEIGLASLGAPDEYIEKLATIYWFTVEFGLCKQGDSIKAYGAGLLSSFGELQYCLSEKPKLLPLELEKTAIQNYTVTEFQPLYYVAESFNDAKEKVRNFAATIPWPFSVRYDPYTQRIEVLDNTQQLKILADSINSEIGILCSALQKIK
The experiment in a line: Cell Based Phenylalanine Flux Assay.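 Note: after compound treatment, cells received sepiapterin plus isotope-labelled Phenylalanine for 4 hours, then labelled Tyrosine in the medium was quantified, 10-point 2-fold dilution series run in duplicate.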 The following applies: A375 cells expressing R408W PAH; 24 hrs with compound, then 20 µM sepiapterin and 800 µM 13C9,15N-Phenylalanine for 4 hours; 13C-Tyrosine by LC-MS; average where tested multiple times; read-out: AC50.
Take `O=C(c1cnco1)N1CCc2[nH]cnc2[C@H]1c1cc2ccc(F)cn2n1` (single isomer, unassigned): the AC50 lay in the range of 1000 to 5000 nM.

As for `Cn1nc(C(F)F)cc1C(=O)N1CCc2[nH]cnc2C1c1cc2ccccn2n1` (stereo not shown), the AC50 was in the range of 1000 to 5000 nM.

Regarding `Cc1nc(C(C)O)oc1C(=O)N1CCc2[nH]cnc2C1c1cc2cccc(Cl)n2n1` (stereo not shown), the AC50 was over 5000 nM.

`FC(F)c1cccn2nc(C3c4nc[nH]c4CCN3c3nnc(N4CCOCC4)o3)cc12` (stereo not shown): the AC50 was over 5000 nM.

With `COc1cccn2nc(C3c4nc[nH]c4CCN3C(=O)c3nnc(-c4cnn(C)c4)o3)cc12` (stereo not shown), the AC50 was in the range of 1000 to 5000 nM.

Consider `Cc1cccc2cc(C3c4nc[nH]c4CCN3c3nnc(C4CCC4)o3)nn12` (stereo not shown), for which the AC50 was over 5000 nM.

Turning to `N#Cc1ncoc1C(=O)N1CCc2[nH]cnc2[C@@H]1c1nn2ccccc2c1Br` (single isomer, unassigned), the AC50 was 1000 to 5000 nM.

For the compound `Cc1n[nH]cc1-c1nnc(C(=O)N2CCc3[nH]cnc3C2c2cc3c(C)cccn3n2)o1` (stereo not shown), the AC50 was in the range of 1000 to 5000 nM.

As for `Clc1cccn2nc(C3c4nc[nH]c4CCN3c3nnc(-c4ncccn4)o3)cc12` (stereo not shown), the AC50 was 1000 to 5000 nM.

As to `Cc1cccc2cc(C3c4nc[nH]c4CCN3C(=O)c3ncnn3C)nn12` (stereo not shown), the AC50 was 1000 to 5000 nM.

The same test, now with this note: A375 cells expressing human PAH R408W; 24 hrs compound incubation; 13C-Tyrosine by LC-MS; average where tested multiple times; read-out: AC50.
For `Cn1nc(C(F)(F)F)nc1C(=O)N1CCc2[nH]cnc2[C@H]1c1cc2cccc(Cl)n2n1` [Example 2412, (S)-(4-(7-chloropyrazolo[1,5-a]pyridin-2-yl)-6,7-dihydro-1H-imidazo[4,5-c]pyridin-5(4H)-yl)(1-methyl-3-(trifluoromethyl)-1H-1,2,4-triazol-5-yl)methanone], the concentration at half-maximal activity (AC50) is 1000 to 5000 nM.

With `FC(F)Oc1cccn2nc([C@H]3c4nc[nH]c4CCN3c3ncccn3)cc12` [Example 2255, (R)-4-(4-(difluoromethoxy)pyrazolo[1,5-a]pyridin-2-yl)-5-(pyrimidin-2-yl)-4,5,6,7-tetrahydro-1H-imidazo[4,5-c]pyridine], the AC50 lay in the range of 1000 to 5000 nM.

As for `Fc1ccc(-c2nnc(N3CCc4[nH]cnc4[C@@H]3c3cc4cccc(C(F)F)n4n3)o2)cc1` [Example 2130, (R)-2-(4-(7-(difluoromethyl)pyrazolo[1,5-a]pyridin-2-yl)-1,4,6,7-tetrahydro-5H-imidazo[4,5-c]pyridin-5-yl)-5-(4-fluorophenyl)-1,3,4-oxadiazole], the AC50 is over 5000 nM.

Turning to `Cc1c(-c2nnc(C(=O)N3CCc4[nH]cnc4[C@@H]3c3cc4c(C5CC5)cccn4n3)o2)cnn1C` [Example 1899, (R)-(4-(4-cyclopropylpyrazolo[1,5-a]pyridin-2-yl)-1,4,6,7-tetrahydro-5H-imidazo[4,5-c]pyridin-5-yl)(5-(1,5-dimethyl-1H-pyrazol-4-yl)-1,3,4-oxadiazol-2-yl)methanone], the AC50 was in the range of 1000 to 5000 nM.

On to `c1ccc(N2CCc3[nH]cnc3[C@H]2c2cc3ccccn3n2)nc1` [Example 1814, (S)-4-(pyrazolo[1,5-a]pyridin-2-yl)-5-(pyridin-2-yl)-4,5,6,7-tetrahydro-1H-imidazo[4,5-c]pyridine], for which the AC50 was under 500 nM.

Still in this test, the particulars now being: A375 cells expressing human R408W PAH; 24 hrs compound incubation; 13C-Tyrosine by LC-MS; average where tested multiple times; read-out: AC50.
As for `Cn1cc(-c2nnc(C(=O)N3CCc4[nH]cnc4[C@H]3c3cc4cccc(C(F)(F)F)n4n3)o2)cn1` [Example 952, (S)-(5-(1-methyl-1H-pyrazol-4-yl)-1,3,4-oxadiazol-2-yl)(4-(7-(trifluoromethyl)pyrazolo[1,5-a]pyridin-2-yl)-6,7-dihydro-1H-imidazo[4,5-c]pyridin-5(4H)-yl)methanone], the AC50 fell in the range of 500 to 1000 nM.

For `CC(C)(F)c1nnc(C(=O)N2CCc3[nH]cnc3[C@H]2c2cc3c(C(F)(F)F)cccn3n2)o1` [Example 950, (S)-(5-(2-fluoropropan-2-yl)-1,3,4-oxadiazol-2-yl)(4-(4-(trifluoromethyl)pyrazolo[1,5-a]pyridin-2-yl)-6,7-dihydro-1H-imidazo[4,5-c]pyridin-5(4H)-yl)methanone], the AC50 is under 500 nM.

Take `CC(C)(C)c1nnc(C(=O)N2CCc3[nH]cnc3[C@H]2c2cc3ccc(F)cn3n2)o1` [Example 1124, (S)-(5-(tert-butyl)-1,3,4-oxadiazol-2-yl)(4-(6-fluoropyrazolo[1,5-a]pyridin-2-yl)-6,7-dihydro-1H-imidazo[4,5-c]pyridin-5(4H)-yl)methanone]: the AC50 lay in the range of 500 to 1000 nM.

As for `O=C(c1nnc(-c2ccn(C(F)F)n2)o1)N1CCc2[nH]cnc2[C@@H]1c1cc2c(OC(F)F)cccn2n1` [Example 1663, (R)-(4-(4-(difluoromethoxy)pyrazolo[1,5-a]pyridin-2-yl)-6,7-dihydro-1H-imidazo[4,5-c]pyridin-5(4H)-yl)(5-(1-(difluoromethyl)-1H-pyrazol-3-yl)-1,3,4-oxadiazol-2-yl)methanone], the AC50 is over 5000 nM.

For `O=C(c1ocnc1C(F)F)N1CCc2[nH]cnc2[C@@H]1c1cc2ccc(C(F)(F)F)cn2n1` [Example 1105, (R)-(4-(difluoromethyl)oxazol-5-yl)(4-(6-(trifluoromethyl)pyrazolo[1,5-a]pyridin-2-yl)-6,7-dihydro-1H-imidazo[4,5-c]pyridin-5(4H)-yl)methanone], the AC50 was in the range of 1000 to 5000 nM.

In the case of `Cc1cccc2cc([C@H]3c4nc[nH]c4CCN3C(=O)c3nnc(-c4ncccn4)o3)nn12` [Example 1336, (R)-(4-(7-methylpyrazolo[1,5-a]pyridin-2-yl)-6,7-dihydro-1H-imidazo[4,5-c]pyridin-5(4H)-yl)(5-(pyrimidin-2-yl)-1,3,4-oxadiazol-2-yl)methanone], the AC50 was in the range of 1000 to 5000 nM.

On to `O=C(c1nnc(-c2ncccn2)o1)N1CCc2[nH]cnc2[C@@H]1c1cc2c(C(F)(F)F)cccn2n1` [Example 1380, (R)-(5-(pyrimidin-2-yl)-1,3,4-oxadiazol-2-yl)(4-(4-(trifluoromethyl)pyrazolo[1,5-a]pyridin-2-yl)-6,7-dihydro-1H-imidazo[4,5-c]pyridin-5(4H)-yl)methanone], for which the AC50 was in the range of 1000 to 5000 nM.

As to `O=C(c1nnc(C2CCC2)o1)N1CCc2[nH]cnc2[C@@H]1c1cc2cccc(Cl)n2n1` [Example 1560, (R)-(4-(7-chloropyrazolo[1,5-a]pyridin-2-yl)-6,7-dihydro-1H-imidazo[4,5-c]pyridin-5(4H)-yl)(5-cyclobutyl-1,3,4-oxadiazol-2-yl)methanone], the AC50 was over 5000 nM.

For the compound `COc1ccc(-c2nnc(C(=O)N3CCc4[nH]cnc4[C@H]3c3cc4cccc(C(F)(F)F)n4n3)o2)cn1` [Example 1344, (S)-(5-(6-methoxypyridin-3-yl)-1,3,4-oxadiazol-2-yl)(4-(7-(trifluoromethyl)pyrazolo[1,5-a]pyridin-2-yl)-6,7-dihydro-1H-imidazo[4,5-c]pyridin-5(4H)-yl)methanone], the AC50 was in the range of 1000 to 5000 nM.

Turning to `O=C(c1nnc(-c2cccnc2)o1)N1CCc2[nH]cnc2[C@H]1c1cc2c(C(F)F)cccn2n1` [Example 1422, (S)-(4-(4-(difluoromethyl)pyrazolo[1,5-a]pyridin-2-yl)-6,7-dihydro-1H-imidazo[4,5-c]pyridin-5(4H)-yl)(5-(pyridin-3-yl)-1,3,4-oxadiazol-2-yl)methanone], the AC50 was under 500 nM.

Regarding `CC(C)(C)c1nnc(C(=O)N2CCc3[nH]cnc3[C@H]2c2cc3cccc(F)n3n2)o1` [Example 1249, (S)-(5-(tert-butyl)-1,3,4-oxadiazol-2-yl)(4-(7-fluoropyrazolo[1,5-a]pyridin-2-yl)-6,7-dihydro-1H-imidazo[4,5-c]pyridin-5(4H)-yl)methanone], the AC50 is under 500 nM.

With `Cc1cccc(-c2nnc(C(=O)N3CCc4[nH]cnc4[C@@H]3c3cc4c(C(F)(F)F)cccn4n3)o2)n1` [Example 1432, (R)-(5-(6-methylpyridin-2-yl)-1,3,4-oxadiazol-2-yl)(4-(4-(trifluoromethyl)pyrazolo[1,5-a]pyridin-2-yl)-6,7-dihydro-1H-imidazo[4,5-c]pyridin-5(4H)-yl)methanone], the AC50 fell in the range of 1000 to 5000 nM.

Turning to `Cn1nc(C(F)F)nc1C(=O)N1CCc2[nH]cnc2[C@@H]1c1cc2c(F)cccn2n1` [Example 765, (R)-(3-(difluoromethyl)-1-methyl-1H-1,2,4-triazol-5-yl)(4-(4-fluoropyrazolo[1,5-a]pyridin-2-yl)-6,7-dihydro-1H-imidazo[4,5-c]pyridin-5(4H)-yl)methanone], the AC50 lay in the range of 1000 to 5000 nM.

As to `Cc1cccc2cc([C@@H]3c4nc[nH]c4CCN3C(=O)c3nnc(-c4cccnc4)o3)nn12` [Example 1308, (S)-(4-(7-methylpyrazolo[1,5-a]pyridin-2-yl)-6,7-dihydro-1H-imidazo[4,5-c]pyridin-5(4H)-yl)(5-(pyridin-3-yl)-1,3,4-oxadiazol-2-yl)methanone], the AC50 was under 500 nM.

As to `Cn1ccc(-c2nnc(C(=O)N3CCc4[nH]cnc4[C@H]3c3cc4c(C(F)F)cccn4n3)o2)n1` [Example 1352, (S)-(4-(4-(difluoromethyl)pyrazolo[1,5-a]pyridin-2-yl)-6,7-dihydro-1H-imidazo[4,5-c]pyridin-5(4H)-yl)(5-(1-methyl-1H-pyrazol-3-yl)-1,3,4-oxadiazol-2-yl)methanone], the AC50 was under 500 nM.

Regarding `Cc1ccn2nc([C@@H]3c4nc[nH]c4CCN3C(=O)c3nc(C(F)F)nn3C)cc2c1` [Example 1049, (S)-(3-(difluoromethyl)-1-methyl-1H-1,2,4-triazol-5-yl)(4-(5-methylpyrazolo[1,5-a]pyridin-2-yl)-6,7-dihydro-1H-imidazo[4,5-c]pyridin-5(4H)-yl)methanone], the AC50 lay within 500 to 1000 nM.
